We go through 43 compounds from patent US9193722B2, “Tri-cyclic pyrazolopyridine kinase inhibitors” (Vertex Pharmaceuticals Incorporated, priority 2008, dated 2015).

Holding throughout (type): biochemical
One assay addresses PKC theta kinase (Homo sapiens, UniProt Q04759). In words: PKC theta kinase inhibition, coupled-enzyme (NADH absorbance) assay, Ki. The conditions noted are these: 240 μM ATP, 18 nM PKC theta kinase, 30° C. Put shortly: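 Coupled-enzyme kinase assay following NADH absorbance at 340 nm, in 100 mM HEPES pH 7.5, 10 mM MgCl2, 25 mM NaCl, 0.1 mM EDTA, 0.01% Brij. Compound in DMSO preincubated with enzyme 10 min at 30 °C. Ki from initial rates by non-linear regression.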

Another assay has as its target PKC delta kinase (Homo sapiens, UniProt Q05655). Nature of the assay: PKC delta kinase inhibition, coupled-enzyme (NADH absorbance) assay, Ki. Conditions: 150 μM ATP, 46 nM PKC delta kinase, 30° C.; read-out: Ki PKC delta. Put shortly:
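PKC delta in 100 mM HEPES pH 7.5, 10 mM MgCl2, 25 mM NaCl, 0.1 mM EDTA, 0.01% Brij, equilibrated 10 min at 30° C with compound from DMSO stock. Started with ATP at 150 μM final; NADH-coupled absorbance at 340 nm followed 15 min at 30° C. Ki from initial rates by non-linear regression.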

A further assay has as its target PKC alpha kinase (Homo sapiens, UniProt P17252). In words: PKC alpha kinase inhibition, coupled-enzyme (NADH absorbance) assay, Ki. The conditions noted are these: 130 μM ATP, 4.5 nM PKC alpha kinase, 30° C. Put shortly:
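Enzyme in 100 mM HEPES pH 7.5, 10 mM MgCl2, 100 μM CaCl2, 0.01% Brij, preincubated with compound 10 min at 30 °C. Reaction started with 130 μM ATP (final); NADH consumption followed at 340 nm for 15 min at 30 °C. Ki fitted by non-linear regression of initial rates.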

PKC delta kinase, sequence (Q05655 whole entry): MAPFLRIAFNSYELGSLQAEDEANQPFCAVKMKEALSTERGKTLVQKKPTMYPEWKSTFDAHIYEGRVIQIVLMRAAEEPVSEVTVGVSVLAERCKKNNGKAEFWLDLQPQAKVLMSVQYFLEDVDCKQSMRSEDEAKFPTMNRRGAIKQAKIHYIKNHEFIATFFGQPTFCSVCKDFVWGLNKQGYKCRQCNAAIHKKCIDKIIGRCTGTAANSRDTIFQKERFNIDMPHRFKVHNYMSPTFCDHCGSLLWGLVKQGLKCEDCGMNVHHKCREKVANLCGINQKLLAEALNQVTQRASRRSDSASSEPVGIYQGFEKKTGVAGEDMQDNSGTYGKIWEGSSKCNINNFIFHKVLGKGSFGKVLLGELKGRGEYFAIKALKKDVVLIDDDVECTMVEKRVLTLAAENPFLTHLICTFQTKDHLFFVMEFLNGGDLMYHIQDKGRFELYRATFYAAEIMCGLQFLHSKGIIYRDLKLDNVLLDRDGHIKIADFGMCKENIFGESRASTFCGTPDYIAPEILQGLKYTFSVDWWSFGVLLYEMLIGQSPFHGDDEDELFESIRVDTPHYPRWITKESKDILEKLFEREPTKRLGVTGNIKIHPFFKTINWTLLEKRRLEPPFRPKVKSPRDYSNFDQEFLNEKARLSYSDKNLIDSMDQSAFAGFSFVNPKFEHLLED
PKC theta kinase, sequence (Q04759 whole entry): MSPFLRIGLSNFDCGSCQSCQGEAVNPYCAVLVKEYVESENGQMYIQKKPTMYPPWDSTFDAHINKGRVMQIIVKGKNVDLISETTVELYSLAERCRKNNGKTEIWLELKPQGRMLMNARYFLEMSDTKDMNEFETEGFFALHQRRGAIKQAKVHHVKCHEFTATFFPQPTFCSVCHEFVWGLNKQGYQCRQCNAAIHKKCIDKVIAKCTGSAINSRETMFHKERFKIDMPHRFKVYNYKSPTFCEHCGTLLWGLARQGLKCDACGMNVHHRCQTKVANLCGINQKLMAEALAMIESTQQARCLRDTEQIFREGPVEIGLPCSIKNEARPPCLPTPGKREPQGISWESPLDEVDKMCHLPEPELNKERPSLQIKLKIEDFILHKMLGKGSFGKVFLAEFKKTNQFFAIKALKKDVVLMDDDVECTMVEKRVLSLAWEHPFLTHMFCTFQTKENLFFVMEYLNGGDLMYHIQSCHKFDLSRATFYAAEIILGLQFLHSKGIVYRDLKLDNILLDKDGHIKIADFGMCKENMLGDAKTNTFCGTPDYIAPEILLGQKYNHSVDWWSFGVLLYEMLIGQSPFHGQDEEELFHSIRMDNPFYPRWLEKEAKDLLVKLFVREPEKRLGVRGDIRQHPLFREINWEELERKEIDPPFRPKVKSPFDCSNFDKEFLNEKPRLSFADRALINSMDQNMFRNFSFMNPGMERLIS

As to `CNC(=O)C1CN(c2ccc(C(F)(F)F)c(-c3n[nH]c4ncccc34)n2)CCN1` (stereo not drawn) [Compound 214], the Ki on PKC theta kinase is greater than 700 nM; on PKC delta kinase, greater than 1250 nM; on PKC alpha kinase, greater than 1250 nM.
Take `CC(C)(C)C[C@H]1CN(c2ccc(Cl)c(-c3n[nH]c4ncccc34)n2)CCN1` [Compound 141]: the Ki on PKC theta kinase is less than 50 nM; at PKC delta kinase it was less than 500 nM; at PKC alpha kinase, less than 2800 nM.
In the case of `CNC(C1CCCN(c2ccc(F)c(-c3n[nH]c4ncccc34)n2)C1)C(C)(C)C` (stereo not drawn) [Compound 408], the Ki at PKC theta kinase is less than 500 nM; on PKC delta kinase, greater than 1250 nM; on PKC alpha kinase, greater than 1250 nM.
`OCC1CN(c2cccc(-c3n[nH]c4ncccc34)n2)CCN1` (stereo not drawn) [Compound 153]: the Ki was less than 500 nM on PKC theta kinase, less than 500 nM on PKC delta kinase and less than 2800 nM at PKC alpha kinase.
As to `c1cc(-c2n[nH]c3ncccc23)nc(N2CCN[C@@H](CC3CC3)C2)c1` [Compound 162], the Ki at PKC theta kinase is less than 50 nM; on PKC delta kinase it was less than 500 nM; at PKC alpha kinase, less than 2800 nM.
The matching figures for `CCNC(=O)CC1CN(c2ccc(C(F)(F)F)c(-c3n[nH]c4ncccc34)n2)CCN1` (stereo not drawn) [Compound 212]: greater than 700 nM, greater than 1250 nM and greater than 1250 nM.
`OCc1cc(-c2n[nH]c3ncccc23)nc(N2CCNCC2)c1` [Compound 443]: the Ki at PKC theta kinase is less than 500 nM; at PKC delta kinase it was less than 2800 nM; at PKC alpha kinase it was greater than 1250 nM.
For `Cc1cc([C@@H]2CN(c3ccc(F)c(-c4n[nH]c5ncccc45)n3)CCN2)[nH]n1` [Compound 260], the values for the Ki at PKC theta kinase, on PKC delta kinase and at PKC alpha kinase were less than 500 nM, greater than 1250 nM and greater than 1250 nM, respectively.
Regarding `NCc1cccc(-c2cccc(-c3n[nH]c4ncccc34)n2)c1` [Compound 335], the Ki on PKC theta kinase, at PKC delta kinase and on PKC alpha kinase was less than 2800 nM in each case.
For `CC(C)(F)C(C)(O)C1CN(c2ccc(F)c(-c3n[nH]c4ncccc34)n2)CCN1` (stereo not drawn) [Compound 254], the Ki at PKC theta kinase is less than 1 nM; at PKC delta kinase it was less than 50 nM; at PKC alpha kinase it was greater than 1250 nM.
As to `CC(C)CC1(CN)CCCN(c2ccc(F)c(-c3n[nH]c4ncccc34)n2)C1` (stereo not drawn) [Compound 351], the Ki at PKC theta kinase was less than 50 nM; at PKC delta kinase it was less than 2800 nM; at PKC alpha kinase, greater than 1250 nM.
As to `CC(C)(F)C(C)(O)C1CN(c2ccc(F)c(-c3n[nH]c4ncccc34)n2)CCN1` (stereo not drawn) [Compound 249], the Ki on PKC theta kinase was less than 50 nM; on PKC delta kinase, greater than 1250 nM; at PKC alpha kinase, greater than 1250 nM.
With `c1ccc(-c2ccc(N3CCNCC3)nc2-c2n[nH]c3ncccc23)cc1` [Compound 50], the Ki on PKC theta kinase is greater than 700 nM; on PKC delta kinase, greater than 2000 nM; on PKC alpha kinase it was greater than 1250 nM.
Turning to `Cc1cc(-c2n[nH]c3ncccc23)nc(N2CCC(N)CC2)c1` [Compound 107], the Ki on PKC theta kinase was less than 500 nM; on PKC delta kinase, greater than 1250 nM; at PKC alpha kinase, greater than 1250 nM.
Take `CN(C)C(=O)CC1CN(c2ccc(C(F)(F)F)c(-c3n[nH]c4ncccc34)n2)CCN1` (stereo not drawn) [Compound 211]: the Ki on PKC theta kinase was greater than 700 nM; at PKC delta kinase, greater than 1250 nM; at PKC alpha kinase, greater than 1250 nM.
For the compound `CC(C)C[C@@H]1CN(c2ccc(C(F)(F)F)c(-c3n[nH]c4ncccc34)n2)CC[C@@H]1N` [Compound 138], the Ki at PKC theta kinase is less than 50 nM; at PKC delta kinase, less than 500 nM; at PKC alpha kinase it was less than 2800 nM.
In the case of `OC1(C2CN(c3ccc(F)c(-c4n[nH]c5ncccc45)n3)CCN2)CCC1` (stereo not drawn) [Compound 240], the results for the Ki at PKC theta kinase, on PKC delta kinase and on PKC alpha kinase were less than 50 nM, less than 500 nM and greater than 1250 nM, respectively.
With `Cc1cccc(C2CN(c3ccc(C(F)(F)F)c(-c4n[nH]c5ncccc45)n3)CCN2)c1` (stereo not drawn) [Compound 134], the Ki on PKC theta kinase is less than 50 nM; at PKC delta kinase it was less than 2800 nM; at PKC alpha kinase, less than 2800 nM.
For the compound `CC(C)CC1CN(c2ccc(C(F)(F)F)c(-c3n[nH]c4ncccc34)n2)CCC1CC#N` (stereo not drawn) [Compound 450], the Ki at PKC theta kinase is less than 500 nM; at PKC delta kinase it was greater than 1250 nM; at PKC alpha kinase it was greater than 1250 nM.
In the case of `CC(=O)N1CCN(c2cccc(-c3n[nH]c4ncccc34)n2)CC1` [Compound 20], the Ki is greater than 700 nM at PKC theta kinase, greater than 2000 nM at PKC delta kinase and greater than 1250 nM on PKC alpha kinase.
For `CCC1CN(c2ccc(C(F)(F)F)c(-c3n[nH]c4ncccc34)n2)CCC1C#N` (stereo not drawn) [Compound 406], the Ki is less than 500 nM on PKC theta kinase, greater than 1250 nM on PKC delta kinase and greater than 1250 nM at PKC alpha kinase.
`NCC1CCN(c2ccc(F)c(-c3n[nH]c4ncccc34)n2)C1` (stereo not drawn) [Compound 289]: the Ki is less than 500 nM on PKC theta kinase, greater than 1250 nM at PKC delta kinase and greater than 1250 nM on PKC alpha kinase.
Consider `NC[C@@H]1CCN(c2cc(C(F)(F)F)cc(-c3n[nH]c4ncccc34)n2)C1` [Compound 420], for which the Ki on PKC theta kinase was less than 2800 nM; on PKC delta kinase, greater than 1250 nM; at PKC alpha kinase it was greater than 1250 nM.
For the compound `CC(C)[C@@](C)(O)[C@@H]1CN(c2nc(-c3n[nH]c4ncccc34)c(F)cc2F)CCN1` [Compound 445], the values for the Ki at PKC theta kinase, on PKC delta kinase and on PKC alpha kinase were less than 1 nM, less than 50 nM and less than 500 nM, respectively.
Turning to `c1cc(-c2n[nH]c3ncccc23)nc(N2CCNC3(CCC3)C2)c1` [Compound 187], the Ki on PKC theta kinase is less than 50 nM; on PKC delta kinase, less than 50 nM; on PKC alpha kinase it was less than 500 nM.
For the compound `CC(C)C[C@H]1CN(c2cccc(-c3n[nH]c4ncccc34)n2)CC[C@@H]1O` [Compound 145], the Ki is less than 500 nM on PKC theta kinase, greater than 1250 nM on PKC delta kinase and greater than 1250 nM at PKC alpha kinase.
In the case of `CC(C)C[C@H]1CN(c2cc(C(F)(F)F)cc(-c3n[nH]c4ncccc34)n2)CCN1` [Compound 57], the Ki was less than 500 nM at PKC theta kinase, greater than 2000 nM on PKC delta kinase and greater than 1250 nM at PKC alpha kinase.
As for `Cc1cc(N2CCN[C@@H](CC(C)C)C2)nc(-c2n[nH]c3ncccc23)c1Cl` [Compound 58], the Ki is less than 500 nM on PKC theta kinase, less than 2800 nM on PKC delta kinase and greater than 1250 nM on PKC alpha kinase.
For `CC(C)C[C@H]1CN(c2ccc(C(F)(F)F)c(-c3n[nH]c4ncccc34)n2)CC[C@@H]1N` [Compound 85], the Ki was less than 500 nM on PKC theta kinase, greater than 2000 nM on PKC delta kinase and greater than 1250 nM on PKC alpha kinase.
Regarding `CC(C)C[C@@H]1C[C@H](N)CN(c2ccc(F)c(-c3n[nH]c4ncccc34)n2)C1` [Compound 366], the Ki is less than 50 nM on PKC theta kinase, less than 2800 nM at PKC delta kinase and greater than 1250 nM at PKC alpha kinase.
The matching figures for `CC(C)(C)C(N)C1CCCN(c2ccc(F)c(-c3n[nH]c4ncccc34)n2)C1` (stereo not drawn) [Compound 308]: less than 50 nM, less than 2800 nM and greater than 1250 nM.
For `CCC[C@H]1CN(c2cccc(-c3n[nH]c4ncccc34)n2)CCCN1` [Compound 228], the Ki at PKC theta kinase is less than 50 nM; on PKC delta kinase it was less than 500 nM; at PKC alpha kinase, less than 500 nM.
Take `N[C@@H]1CCN(c2cccc(-c3n[nH]c4ncccc34)n2)C1` [Compound 33]: the Ki at PKC theta kinase was less than 500 nM; on PKC delta kinase it was less than 2800 nM; at PKC alpha kinase it was greater than 1250 nM.
Turning to `CC(C)C[C@H]1CN(c2ccc(F)c(-c3n[nH]c4ncccc34)n2)CC[C@H]1N` [Compound 152], the Ki was less than 50 nM on PKC theta kinase, less than 500 nM at PKC delta kinase and less than 500 nM on PKC alpha kinase.
Consider `CC1CN(c2ccc(F)c(-c3n[nH]c4ncccc34)n2)CC1CN` (stereo not drawn) [Compound 313], for which the Ki on PKC theta kinase is less than 500 nM; at PKC delta kinase, greater than 1250 nM; at PKC alpha kinase, greater than 1250 nM.
With `CC(C)C(C)(N)C1CCCN(c2ccc(F)c(-c3n[nH]c4ncccc34)n2)C1` (stereo not drawn) [Compound 292], the Ki on PKC theta kinase is less than 500 nM; at PKC delta kinase, less than 2800 nM; on PKC alpha kinase, greater than 1250 nM.
Turning to `NC(=O)C1(N)CCN(c2ccc(F)c(-c3n[nH]c4ncccc34)n2)CC1` [Compound 399], the figures for the Ki on PKC theta kinase, on PKC delta kinase and on PKC alpha kinase were greater than 700 nM, greater than 1250 nM and greater than 1250 nM, respectively.
As for `CC(C)C[C@H]1CN(c2ccc(C(F)(F)F)c(-c3n[nH]c4ncccc34)n2)C[C@H](C)N1` [Compound 202], the Ki on PKC theta kinase is greater than 700 nM; at PKC delta kinase, greater than 1250 nM; on PKC alpha kinase, greater than 1250 nM.
For the compound `CC1(C)CC1(O)C1CN(c2ccc(F)c(-c3n[nH]c4ncccc34)n2)CCN1` (stereo not drawn) [Compound 381], the values for the Ki at PKC theta kinase, at PKC delta kinase and at PKC alpha kinase were less than 1 nM, less than 500 nM and less than 500 nM, respectively.
On to `C[C@H]1CN(c2cccc(-c3n[nH]c4ncc(Cl)cc34)n2)CCN1` [Compound 43], for which the Ki on PKC theta kinase, at PKC delta kinase and at PKC alpha kinase was less than 500 nM each time.
Turning to `CC(C)C(C)C1CN(c2ccc(F)c(-c3n[nH]c4ncccc34)n2)CCN1` (stereo not drawn) [Compound 238], the results for the Ki on PKC theta kinase, at PKC delta kinase and at PKC alpha kinase were less than 50 nM, less than 500 nM and greater than 1250 nM, respectively.
For the compound `Fc1ccc(N2CCC(F)CC2)nc1-c1n[nH]c2ncccc12` [Compound 267], the Ki on PKC theta kinase was greater than 700 nM; at PKC delta kinase, greater than 1250 nM; on PKC alpha kinase, greater than 1250 nM.
For `NC1CCN(c2ccc(C(F)(F)F)c(-c3n[nH]c4ncccc34)n2)CC12CCCC2` (stereo not drawn) [Compound 464], the Ki at PKC theta kinase is less than 50 nM; on PKC delta kinase it was less than 500 nM; on PKC alpha kinase, less than 500 nM.
